According to patent US8846665B2, “6,7-dihydro-[1,3,4]thiadiazolo-[3,2-a][1,3]diazepin derivative and pharmaceutical composition containing the same as neuromuscular blocker or skeletal muscle relaxant, and method for the preparation” (King Saud University, priority 2011, dated 2014):
Values joined by “and” are separate entries in the source; they are usually repeats but may differ in a detail not shown here. Identical values can stand only once. Like-named read-outs stand apart in the source and are kept apart here.

What was measured:
[1] = tested on: rat tibialis electrically-induced twitches; experiment: Neuromuscular blocking activity in rats (sciatic nerve-tibialis twitch); type: in vivo; details: for Time for 100% Reversal / Time of onset of Reversal: after physostigmine; for ED50 (mmole/kg i.p.): dose producing 50% reduction of the rat tibialis twitch; for Duration of the Block / Time of 50% Block / Time of 90% Block / Time of onset of Block: rat tibialis twitches; for Effect of Physostigmine: reversal of block by physostigmine, single bolus
[2] = tested on: 4-day old chicks; experiment: Neuromuscular blocking activity in chicks (head drop, type of paralysis); type: in vivo, chick
Description: Adult male Wistar rats (250 g) and 4-day old chicks (50 g) were used to conduct the neuromuscular blocking activity evaluation. They were housed in cages and kept at a temperature of 20±2° C. and a relative humidity of 55±5% with a light-dark cycle of 12 h. The animals were provided with Purina rodent's chow pellets supplied by Grain silos and Flour Mills Organization, Riyadh, Saudi Arabia and had both food and water ad libitum. The chicks were bought from the local market in Riyadh. Male Wistar rats (250 g) were randomly divided into various groups (N=4-8 animals). The animals were prepared following modifications of the reported method (Henning, R. Br. J. Pharmacol. 1993, 108, 717-720; Thesleff, S. et al, J. Pharmacol. Expt. Ther. 1954, 111, 99-118). Test drugs, standards or vehicles were administered intraperitoneal dissolved in dimethyl sulfoxide, or water as appropriate in various doses 1-100 mg/kg. In all experiments a control group was included and received intraperitoneal injections of the test compounds' vehicle. […] Also the dose that produced 90% of twitches depression was calculated. The response of the muscle to titanic stimulation was tested before administration of any drug and following 90% inhibition of the twitches.
Intraperitoneal administration of compounds of the formula 1 in single doses ranged from of 0.15-0.3 mmoles/kg, induced flaccid paralysis of the chicks within 1-15 minutes. The paralysis started with head movement and drop; then complete flaccid paralysis occurred. The onset of head drops were ranged from 15 sec-11 minutes whereas the flaccid paralysis ranged from 1-15 minutes following administration. Atracurium and Succinylcholine were used as positive controls. The mechanism of action of compounds of the formula 1 was similar but with more rapid onset of action than that of Atracurium; and almost similar to that of Succinylcholine. Representative example is shown in Example 4.
The effects of GS-53 and the standard drugs Succinylcholine and Atracurium were administered to 4-day old chicks to confirm the mode of the neuromuscular blockade (Buttle, G. et al, J. Pharm. Pharmacol. 1949, 1, 991-992; Thesleff, S. et al, J. Pharmacol. Expt. Ther. 1954, 111, 99-118; ELTahir, K. Guide to Drug Discovery, 2008, Riyadh, KSA). […] Intraperitoneal administration of GS-53 in single dose of 0.15 mmoles/kg, induced flaccid paralysis of the chicks within one minute. The paralysis started with head movement and drop; then complete flaccid paralysis occurred. The onset of head drop was 15 sec whereas the flaccid paralysis was one minute following administration. Atracurium and Succinylcholine were used as positive controls. The mechanism of action GS-53 seemed to be similar but with more rapid onset of action than that of Atracurium; and almost similar to that of Succinylcholine (Table 2).

[3] = Determination of the lethal dose (LD50); details: male, mouse, in vivo, ip, male mice, intraperitoneal
Description: The LD50 values of compounds of formula 1 were performed. Compounds were given intraperitoneally in doses ranging from 0.1-5 mmole/kg. […] All behavioral changes and death during the observation periods were recorded. The percentage of death at each dose level was then calculated, and the LD50 values were obtained (Ghosh, M., Fundamentals of Experimental Pharmacology, Scientific Book Agency, Calcutta. 1984, pp 153-158, 187-189). The Therapeutic Index of each compound was calculated following the determination of the effective neuromuscular blocking dose. Representative example is shown in Example 5.
Male mice were divided into various groups and GS-53 was administered in various doses ranging from 0.1-5 mmole/kg, intraperitoneal. […] All behavioral changes and death during the observation periods were recorded.

[4] = literature classification, cited from earlier work; for Onset of action: following bolus i.v. administration
[5] = single dose of 0.15 mmoles/kg i.p.

Compound	Time for 100% Reversal [1] [min]	Time of onset of Reversal [1] [min]	ED50 (mmole/kg i.p.) ([1]; i.p.) [mmol/kg]	Duration of the Block ([1]; i.p.) [min]	Time of 50% Block ([1]; i.p.) [min]	Time of 90% Block ([1]; i.p.) [min]	Time of onset of Block ([1]; i.p.) [min]	Effect of Physostigmine [1]	ED50 (mmole/kg i.p.) ([2]; i.p.) [mmol/kg]	Mechanism of action ([2]; i.p.)	Onset of head drop ([2]; i.p.) [min]	Onset of muscle relaxation ([2]; i.p.) [min]	Type of neuromuscular paralysis ([2]; i.p.)	Onset of action [4]	Duration [4] [min]	further results
COc1ccc(CC2c3cc(OC)c(OC)cc3CC[N+]2(C)CCC(=O)OCCCCCOC(=O)CC[N+]2(C)CCc3cc(OC)c(OC)cc3C2Cc2ccc(OC)c(OC)c2)cc1OC (centres unmarked) [Atracurium]	3 ± 0.4	2.0	0.016	30 ± 6	8 ± 0.2	12 ± 1.3	5 ± 0.8	100% Reversal	0.016	Competitive	5 ± 0.8	10 ± 0.8	Flaccid	–	–	–
O=C1CCCN2N=C(c3ccc(Br)cc3)SC2=N1 [GS-53, (E)-2-(4-bromophenyl)-6,7-dihydro-[1,3,4]thiadiazolo[3,2-a][1,3]diazepin-8(5H)-one]	6 ± 1.2	1.0	0.15	70 ± 12	7 ± 0.6	10 ± 3	3 ± 0.9	completely reversed and 100% Reversal	0.15	Competitive	0.25 ± 0.1	1 ± 0.08	Flaccid	–	–	ED50 (mmole/kg i.p.), value in brackets in mg ([1]; i.p., rat tibialis twitch): 48.6 mg; Duration of action relative to Atracurium ([1]; rat, ratio of durations of block): 2.3 times; LD50 at 72 h ([3]; observation 72 hours, read-out: LD50): 195 mg/kg; LD50 at 72 h ([3]; read-out: LD50 95% confidence limits): 185 to 205 mg/kg; ED50 (mmole/kg i.p.), value in brackets in mg ([2]; i.p.): 48.6 mg/kg; Onset of flaccid paralysis [2, 5]: one; Onset of head drop [2, 5]: 0.25 min
COc1cc2c(cc1OC)[C@H](c1cc(OC)c(OC)c(OC)c1)[N@@+](C)(CCCOC(=O)/C=C(\Cl)C(=O)OCCC[N@+]1(C)CCc3cc(OC)c(OC)cc3[C@H]1Cc1cc(OC)c(OC)c(OC)c1)CC2 [Gantacurium]	–	–	–	–	–	–	–	–	–	–	–	–	–	within a minute	5	–
C[N+](C)(C)CCOC(=O)CCC(=O)OCC[N+](C)(C)C [Succinylcholine]	–	–	0.03	20 ± 1.8	3 ± 0.1	5 ± 0.2	2 ± 0.1	No Reversal	0.03	Depolarizing	–	0.5 ± 0.02	Spastic	within a minute	5	–
